Results published in patent US6486305B1, “METHOD OF MODULATING THE EFFICIENCY OF TRANSLATION TERMINATION AND DEGRADATION OF ABERRANT MRNA INVOLVING A SURVEILLANCE COMPLEX COMPRISING HUMAN UPF1P, EUCARYOTIC RELEASE FACTOR 1 AND EUCARYOTIC RELEASE FACTOR 3” (priority 1998, dated 2002).
Entries after “also recorded” stand apart in the source; their conditions may differ.

Tests used:
[1] = test system: −1 ribosomal frameshifting; assay: β-galactosidase assay of −1 ribosomal frameshifting in the presence of paromomycin; type: cell-based, Saccharomyces cerevisiae
Procedure: Cloning of UPF3: The strategy used to clone the UPF3 gene was the same that was used to clone UPF2 (Cui, Y, K. W. Hagan, S. Zhang, and Peltz, S. W. (1995)). […] Killer assays, frameshifting assays and extraction and analysis of total nucleic acids: The killer assay was carried out as previously described (Dinman, J. D., and Wickner, R. B. (1992)) by replica plating colonies onto 4.7 MB plates newly seeded with a lawn of 5×47 killer indicator cells (0.5 ml of a suspension at 1 unit of optical density at 550 nm per ml per plate). After 2 days at 20° C., killer activity was observed as a zone of growth inhibition around the killer colonies. To quantitate loss of killer activity, colonies that had been identified as killer^+ were re-streaked for single colonies and the percentage of killer^+ colonies were determined. The efficiencies of −1 frameshifting were determined as previously described (Cui, Y. Dinman, J. D., and Peltz, S. W. (1996); Dinman, J. D., Ruiz-Echevarria, M. J., Czaplinski, K. and Peltz, S. W. (1 997b)) using the 0-frame control (pTI25) and −1 reporter (pF8) plasmids. […]
The effect of paromomycin on −1 ribosomal frameshifting was analyzed further by β-galactosidase assay using plasmids pF8 (−1 frameshift reporter construct) or pTI25 (zero frame control) in isogenic wild-type and upf3Δ strains. […]

[2] = test system: isogenic wild-type and upf3Δ strains; assay: Paromomycin sensitivity, zone of growth inhibition around a disc on a lawn of cells; type: cell-based, Saccharomyces cerevisiae
Procedure: FIG. 11. Paromomycin sensitivity was monitored in isogenic wild-type and upf3Δ strains by placing a disc containing 1 mg of paromomycin onto a lawn of cells and determining the zone of growth inhibition around the disc.
Paromomycin sensitivity was monitored in isogenic wild-type and upf3Δ strains by placing a disc containing 1 mg of paromomycin onto a lawn of cells and determining the zone of growth inhibition around the disc (FIG. 11).

Upf1p-eRF3 interaction [3] = target: T1, Upf1p-eRF3 interaction (Saccharomyces cerevisiae, UniProt P30771); assay: GST-eRF3 pull-down of purified FLAG-Upf1p with immunoblotting; type: binding, yeast; conditions: 1 mM ATP, 1 mM GTP, or 100 μg/ml poly(U) RNA
T1 construct: FLAG (N); made in house; host or cells: GST-eRF3: E. coli BL21(DE3) pLysS with pGEX2T-SUP35
T1 sequence (P30771 1-971): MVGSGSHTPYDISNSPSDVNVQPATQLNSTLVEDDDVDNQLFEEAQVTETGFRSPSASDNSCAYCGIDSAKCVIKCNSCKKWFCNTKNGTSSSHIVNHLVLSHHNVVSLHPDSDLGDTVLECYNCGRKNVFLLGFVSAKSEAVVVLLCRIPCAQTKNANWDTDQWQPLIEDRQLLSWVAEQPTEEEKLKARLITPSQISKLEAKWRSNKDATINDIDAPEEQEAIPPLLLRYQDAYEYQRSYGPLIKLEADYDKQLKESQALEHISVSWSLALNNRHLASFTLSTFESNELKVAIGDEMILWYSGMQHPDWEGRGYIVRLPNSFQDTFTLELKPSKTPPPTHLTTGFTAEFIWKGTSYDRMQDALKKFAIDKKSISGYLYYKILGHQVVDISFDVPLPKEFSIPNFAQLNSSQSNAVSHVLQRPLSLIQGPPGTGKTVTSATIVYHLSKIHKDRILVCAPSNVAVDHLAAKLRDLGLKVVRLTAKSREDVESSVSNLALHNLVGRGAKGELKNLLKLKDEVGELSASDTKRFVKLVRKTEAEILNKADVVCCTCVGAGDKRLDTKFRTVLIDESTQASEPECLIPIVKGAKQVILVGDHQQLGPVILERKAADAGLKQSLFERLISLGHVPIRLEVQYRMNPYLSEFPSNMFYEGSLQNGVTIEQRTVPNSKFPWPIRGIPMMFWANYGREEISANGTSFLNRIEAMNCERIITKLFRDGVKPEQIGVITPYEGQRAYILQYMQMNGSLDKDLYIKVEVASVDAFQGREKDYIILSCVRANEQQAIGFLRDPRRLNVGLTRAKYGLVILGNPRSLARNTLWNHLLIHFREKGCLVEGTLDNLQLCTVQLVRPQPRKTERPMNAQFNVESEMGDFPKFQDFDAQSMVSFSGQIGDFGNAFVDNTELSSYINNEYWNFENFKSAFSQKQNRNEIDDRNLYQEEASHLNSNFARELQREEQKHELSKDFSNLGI
Procedure: (§1) FIGS. 1A-1B. The yeast Upf1 protein interacts specifically with the peptidyl release factors. (1A) GST-eRF1 or GST-eRF3 […] proteins bind specifically to Upf1p in a yeast extract. Cytoplasmic extracts from a yeast strain BJ3505 transformed with either pG-1 (vector) or pG-1FLAGUPF1 (Flag-Upf1p) were prepared in IBTB and incubated with 30 μl GST, GST-eRF1 or GST-eRF3 sepharose-protein complexes. The sepharose-protein complexes were washed 2 times in IBTB (see materials and methods), resuspended in SDS-PAGE loading buffer, separated on an 8% SDS-PAGE gel and immunoblotted using anti-FLAG antibody. (1B) Upf1p interacts directly with both eRF1 and eRF3. Upf1p was purified as described previously (Czaplinski et al. 1995). 200 ng of Upf1p was added to 10 μl of GST, GST-eRF1 or GST-eRF3 sepharose-protein complexes in a total reaction volume of 200 μl in IBTB supplemented with KCl to the final concentration indicated above each lane. After 1 hour at 4° C. sepharose-protein complexes were washed for 3 minutes with 1 ml of IBTB supplemented with KCl to the final concentration indicated above each lane. The purified sepharose-protein complexes were resuspended in SDS-PAGE loading buffer and separated on a 7.5% SDS-PAGE gel and immunoblotted as in (A).
(§2) FIGS. 3A-3B. eRF3 and RNA compete for binding to Upf1p. (3A) Poly(U) RNA prevents Upf1p from binding to eRF3. Reaction mixtures were prepared as described in FIG. 1B, except that binding was performed in TBSTB (TBST with 100 μg/ml BSA) and reaction mixtures contained 1 mM ATP, 1 mM GTP, or 100 μg/ml poly(U) RNA as indicated above each lane. The reaction mixtures were mixed for 1 hour at 4° C. Following mixing, the complexes were washed as in FIG. 1B with TBSTB containing 1 mM ATP, 1 mM GTP, or 100 μg/ml poly(U) RNA as indicated above each lane. […]
(§3) Further, purified Flag-Upf1p with poly(U) RNA was incubated in the presence or absence of ATP. Following incubation, GST-eRF3 was added to the reaction mixtures and the Upf1-eRF3 interaction was monitored by immunoblotting analysis as before.

Upf1p-eRF3 interaction [4] = target: T2, Upf1p-eRF3 interaction (Saccharomyces cerevisiae, UniProt P30771, K436A); assay: as above; type: binding, yeast; conditions: GST-eRF3
T2 construct: FLAG (N); made in house; host or cells: GST-eRF3: E. coli BL21(DE3) pLysS with pGEX2T-SUP35
Procedure: as §1, §2, §3

Upf1p-eRF1 interaction = target: T3, Upf1p-eRF1 interaction (Saccharomyces cerevisiae, UniProt P30771, K436A); assay: GST-eRF1 pull-down of purified FLAG-Upf1p with immunoblotting; type: binding, yeast; conditions: GST-eRF1, various KCl concentrations
T3 construct: FLAG (N); made in house; host or cells: GST-eRF1: E. coli BL21(DE3) pLysS with pGEX2T-SUP45
Procedure: as §1, with “After 1 hour at 4° C. sepharose-protein complexes were washed for 3 minutes with 1 ml of IBTB supplemented with KCl to the final concentration indicated above each lane. The purified sepharose-protein complexes were resuspended in SDS-PAGE loading buffer and separated on a 7.5% SDS-PAGE gel and immunoblotted as in (A).” left out
Previous results have shown that strains harboring mutations in the conserved lysine residue in position 436 of the Upf1p (K436) result in stabilization of nonsense-containing mRNAs and a nonsense suppression phenotype (Weng et al., 1996a). […] Reaction mixtures containing the K436A form of Upf1p, GST-eRF1 and various KCl concentrations were prepared,and their interaction was monitored as described above.

**Q.** For `NC[C@@H]1O[C@H](O[C@H]2[C@@H](O)[C@H](O[C@@H]3[C@@H](O)[C@H](N)C[C@H](N)[C@H]3O[C@H]3O[C@H](CO)[C@@H](O)[C@H](O)[C@H]3N)O[C@@H]2CO)[C@H](N)[C@@H](O)[C@@H]1O` [paromomycin], which “β-galactosidase activity (−1 frameshift reporter)” value ([1]; upf3Δ cells carrying pF8, liquid media, different concentrations of the drug) is on record?
**A.** increased continuously with increased concentrations of paromomycin

**Q.** And the β-galactosidase activity ([1]; wild-type cells containing pF8, or any strain carrying pTI25 (zero frame control))?
**A.** unaffected

**Q.** And the “Paromomycin sensitivity (hypersensitivity)” value ([2]; upf1Δ or upf2Δ strains)?
**A.** Neither the upf1Δ or upf2Δ strains demonstrate hypersensitivity

**Q.** And the “Paromomycin sensitivity (zone of growth inhibition)” value ([2]; upf3Δ strain vs isogenic wild-type, disc containing 1 mg of paromomycin)?
**A.** more sensitive to paromomycin than the isogenic wild-type strain

**Q.** How did the “Effect on interaction between Upf1p and eRF3” value (Upf1p-eRF3 interaction [3]) turn out when `Nc1ncnc2c1ncn2[C@@H]1O[C@H](COP(=O)(O)OP(=O)(O)OP(=O)(O)O)[C@@H](O)[C@H]1O` [ATP] was run?
**A.** did not affect the interaction; also recorded: did not prevent association of Upf1p with eRF3

**Q.** `Nc1nc2c(ncn2[C@@H]2O[C@H](COP(=O)(O)OP(=O)(O)OP(=O)(O)O)[C@@H](O)[C@H]2O)c(=O)[nH]1` [GTP] was tested. Which “Effect on interaction between Upf1p and eRF3” value (Upf1p-eRF3 interaction [3]) did it give?
**A.** not affected

B1: Upf1K436A: purified K436A form of the Upf1p, mutation of the conserved lysine residue in position 436 (protein, UniProt P30771 1-971, looked up, variant K436A)
ATP-dependent helicase NAM7: MVGSGSHTPYDISNSPSDVNVQPATQLNSTLVEDDDVDNQLFEEAQVTETGFRSPSASDNSCAYCGIDSAKCVIKCNSCKKWFCNTKNGTSSSHIVNHLVLSHHNVVSLHPDSDLGDTVLECYNCGRKNVFLLGFVSAKSEAVVVLLCRIPCAQTKNANWDTDQWQPLIEDRQLLSWVAEQPTEEEKLKARLITPSQISKLEAKWRSNKDATINDIDAPEEQEAIPPLLLRYQDAYEYQRSYGPLIKLEADYDKQLKESQALEHISVSWSLALNNRHLASFTLSTFESNELKVAIGDEMILWYSGMQHPDWEGRGYIVRLPNSFQDTFTLELKPSKTPPPTHLTTGFTAEFIWKGTSYDRMQDALKKFAIDKKSISGYLYYKILGHQVVDISFDVPLPKEFSIPNFAQLNSSQSNAVSHVLQRPLSLIQGPPGTGATVTSATIVYHLSKIHKDRILVCAPSNVAVDHLAAKLRDLGLKVVRLTAKSREDVESSVSNLALHNLVGRGAKGELKNLLKLKDEVGELSASDTKRFVKLVRKTEAEILNKADVVCCTCVGAGDKRLDTKFRTVLIDESTQASEPECLIPIVKGAKQVILVGDHQQLGPVILERKAADAGLKQSLFERLISLGHVPIRLEVQYRMNPYLSEFPSNMFYEGSLQNGVTIEQRTVPNSKFPWPIRGIPMMFWANYGREEISANGTSFLNRIEAMNCERIITKLFRDGVKPEQIGVITPYEGQRAYILQYMQMNGSLDKDLYIKVEVASVDAFQGREKDYIILSCVRANEQQAIGFLRDPRRLNVGLTRAKYGLVILGNPRSLARNTLWNHLLIHFREKGCLVEGTLDNLQLCTVQLVRPQPRKTERPMNAQFNVESEMGDFPKFQDFDAQSMVSFSGQIGDFGNAFVDNTELSSYINNEYWNFENFKSAFSQKQNRNEIDDRNLYQEEASHLNSNFARELQREEQKHELSKDFSNLGI
**Q.** Which “Interaction with eRF3 relative to wild-type Upf1p” value (Upf1p-eRF3 interaction [4]) does the source give for B1 here?
**A.** equivalent affinity as the wild-type Upf1p

**Q.** What about the “Reduction of interaction with eRF1 relative to wild-type Upf1” value (Upf1p-eRF1 interaction) of the same molecule?
**A.** 4 to 6 fold
